From Sander's compilation of Henry's law constants (doi:10.1016/s0378-3812(99)00193-4)

Assay: Henry solubility constant Hcp at 298.15 K (mol/(m3 Pa))
Details: reference: Ryu and Park (1999)

Structure (SMILES) | Henry solubility constant Hcp
Cc1ccc(C)cc1 [1,4-dimethylbenzene] | 0.0014
c1ccccc1 [benzene] | 0.0017
CCCCc1ccccc1 [butylbenzene] | 0.00074
Clc1ccccc1 [chlorobenzene] | 0.0019
ClCCl [dichloromethane] | 0.0041
Cc1ccccc1 [methylbenzene] | 0.0015
ClC(Cl)=C(Cl)Cl [tetrachloroethene] | 0.00053
ClC(Cl)(Cl)Cl [tetrachloromethane] | 0.00038
ClC=C(Cl)Cl [trichloroethene] | 0.00095

Results, then the compound that gave them:

Henry solubility constant Hcp | Structure (SMILES)
0.0011 | CCc1ccccc1 [ethylbenzene]
4.5e-06 | CCCCCCC [heptane]
6.1e-06 | CCCCCC [hexane]
2.2e-06 | CCCCCCCCC [nonane]
3.4e-06 | CCCCCCCC [octane]
0.00061 | CCCCCc1ccccc1 [pentylbenzene]
